# Experimental data reported in patent US6686336B2, “N-terminal D(-)-penicillamine peptides as aldehyde sequestration agents” (Federal Government as represented by the Department of …, priority 2000, dated 2004).
# Assays:
# [1] = cited from earlier work; for AcH sequestration (trapping) in vivo: earlier studies (Nagasawa et al., J. Med. Chem, 1987)
# [2] = test system: rat hepatocytes; experiment: Test B: Sequestration of AcH in a hepatocyte system; assay type: cell-based; details: ethanol 20 mM; for lowering of the concentration of ethanol-derived AcH: compound 1.0 mM (1/20 molar concentration of ethanol), at two hrs, vs ethanol control without dipeptide, FIG. 4
# Protocol: Test B: Sequestration of AcH in a hepatocyte system.
# Hepatocytes from male Wistar rats were isolated and cultured under conditions previously described. On culture day two, ethanol and representative compounds of the invention were added to the culture medium to final concentrations of 20 mM and 1.0 mM, respectively. After 2 hours, 1.0 ml of medium was removed and added to a semicarbazide/sodium azide mixture and frozen until assayed for AcH by gas chromatography. AcH was measured before the addition of ethanol and representative compounds of the invention and 2 hours after incubation, and the values compared against ethanol control without dipeptides. In experiments with cyanamide (to inhibit AlDH), the cyanamide was added with the ethanol to give a final concentration in the culture medium of 50 mM. Results are depicted in FIGS. 4 and 5.
# [3] = Test A: Sequestration of AcH in a cell-free system; assay type: biochemical; details: AcH 40 nmol, compound 400 nmol, 4.0 mM DTT, pH 7.4, 30 minute incubation at 37° C.; compared with 1 (positive control); FIG. 3
# Protocol: Test A: Sequestration of AcH in a cell-free system. AcH (40 nmol) was incubated without (control) and with representative compounds of the invention (400 nmol) in a reaction mixture containing 4.0 mM dithiothreitol (DTT) and 40 mM potassium phosphate buffer (pH 7.4) in a total volume of 1.2 ml. The AcH remaining after a 30 minute incubation period at 37° C. was quantified by headspace GC analysis. DTT was included in the reaction mixture to maintain the thiols in their reduced state.
melting point,SMILES,AcH sequestering activity (AcH remaining by headspace GC) [3],other results
263 to 265.5 °C (dec.),CC(C)[C@H](NC(=O)[C@H](N)C(C)(C)S)C(=O)O.Cl,–,–
–,"NC(C(=O)O)C1(S)CCCC1 (racemic) [Compound 2, β,β-tetramethylene-DL-cysteine]",–,AcH sequestration (trapping) in vivo [1]: best β-mercapto-α-amino acid sequestration agents for AcH in vivo
–,"CC(C)(S)[C@@H](N)C(=O)O [Compound 1, D(−)-penicillamine]",–,AcH sequestration (trapping) in vivo [1]: best β-mercapto-α-amino acid sequestration agents for AcH in vivo
67 to 71 °C,"CC(C)(S)[C@@H](N)C(=O)NCC(=O)O.Cl [Compound 6a, D-Penicillamylglycine Hydrochloride]",–,"lowering of the concentration of ethanol-derived AcH [2]: 79%; reduction of ethanol-derived AcH concentration in presence of cyanamide ([2]; compound 1.0 mM, cyanamide (AlDH inhibitor) 50 mM, 2 hours, vs control without dipeptide, FIG. 5): 33%"
145 to 148 °C,"CC(N)(CC(=O)[C@H](N)C(C)(C)S)C(=O)O.Cl (stereo partly drawn) [Compound 6c, D-Penicillamyl-α-aminoisobutyric acid hydrochloride]",–,–
71 to 75 °C,"CC(C)(S)[C@@H](N)C(=O)NCCC(=O)O.Cl [Compound 6d, D-Penicillamyl-β-alanine Hydrochloride]",–,lowering of the concentration of ethanol-derived AcH [2]: 84%
–,N[C@@H](CCS)C(=O)O [L-Homocysteine],comparable to 1,AcH sequestration (trapping) in vivo [1]: not to be an effective AcH-trapping agent in vivo; metabolism in vivo ([1]; given as reason for lack of AcH trapping): metabolized too rapidly in vivo
–,CSCC[C@H](N)C(=O)O [Methionine],totally without AcH sequestering activity,–
–,N#CN [cyanamide],–,"increase in ethanol-derived AcH ([2]; cyanamide in incubation medium (50 mM), control without dipeptide, FIG. 5): 45 fold"
–,N[C@@H](CO)C(=O)O [serine],totally without AcH sequestering activity,–
–,C[C@@H](O)[C@H](N)C(=O)O [threonine],totally without AcH sequestering activity,–
